Assay results taken from PMC4281461, “Pharmacokinetic Comparative Study of Gastrodin and Rhynchophylline after Oral Administration of Different Prescriptions of Yizhi Tablets in Rats by an HPLC-ESI/MS Method” (Evidence-based Complementary and Alternative Medicine : eCAM, 2014).
Like-named read-outs stand apart in the source and are kept apart here.

What was measured:
[1] = Plasma pharmacokinetics in rats after oral administration of Yizhi tablets, EPT or EPG (HPLC-ESI/MS); type: in vivo, Sprague-Dawley rats; settings: for AUC(0-inf) / CL/F / Cmax / Tmax / MRT last / MRT inf / AUC(0-t): male, Sprague-Dawley; for MRT last: read-out: MRT(0–t) (converted); for MRT inf: read-out: MRT(0–∞) (converted)
Experimental: Male Sprague-Dawley rats (weight: 220 ± 30 g) were purchased from the animal laboratory centre at Tsinghua University (Beijing, China). All animals were maintained in an environmentally controlled room under controlled temperature (22–25°C) and relative humidity (50 ± 5%) on 12 h light/dark cycles (lights on from 08:00 to 20:00). Experiments were conducted in a specific pathogen-free (SPF) grade laboratory, according to the guidelines of the Guiding Principles for the Care and Use of Laboratory Animals approved by the Committee for Animal Experiments at Tsinghua University (Beijing, China). The animals were acclimated for one week before use. Standard diet and water were provided to the rats ad libitum.
Yizhi tablets were prepared by mixing Yizhi tablet powder (9 g) in 10 mL 5% CMC-Na with a magnetic stirring apparatus. The concentration of effective parts of tianma (EPT, total saponins from Gastrodiae) and gouteng (EPG, rhynchophylla alkaloids) was equivalent to that in a Yizhi tablet. The three different suspensions were shacked uniformly before administration.
The rats were randomly assigned to one of three groups (1–3), representing the groups administered with EPT, EPG, and Yizhi, respectively. Each group contained six rats. The rats fasted overnight with free access to water before dose administration. After a single dose was administered by oral gavage, blood samples (0.5 mL) were collected in heparinized tubes via the orbital vein at 0 min, 10 min, 20 min, 30 min, 45 min, 1 h, 2 h, 4 h, 6 h, 8 h, and 12 h. All blood samples were centrifuged at 3000 rpm for 15 min to collect plasma. The plasma samples obtained were stored at −20°C until analysis. Along with the plasma samples, quality control (QC) samples were distributed among calibrators and unknown samples in the analytical run. All of the blank samples used as controls were prepared by the same method as drug-containing samples.
To 200 μL of thawed plasma, 25 μL aqueous ammonia and 800 μL ether were added. The supernatant was separated and dried under nitrogen gas at 37°C after vortexing for 1 min and centrifuging at 10,000 g for 15 min at 4°C. The residues were reconstituted in 50 μL of methanol and centrifuged at 15,000 g for 15 min. A 20 μL aliquot of the supernatant was injected into the HPLC-MS system for analysis of RIN. To the residue, 800 μL methanol was added. The supernatant was separated and evaporated to dryness under nitrogen at room temperature after being vortexed for 3 min and centrifuged at 10,000 g for 15 min. The residue was reconstituted in 50 μL of the initial mobile phase and centrifuged at 15,000 g for 15 min. 20 μL aliquot of the supernatant was injected into the HPLC-MS system for analysis of GAS and HBA.
Yizhi tablets, EPT, and EPG were separately suspended in 0.5% carboxymethylcellulose solution and administered orally to six conscious rats at doses of 9 g/kg for Yizhi tablets, 5.4 g/kg for EPT, and 3.6 g/kg for EPG, respectively. Blood samples were collected from the retroorbital plexus of rats under light anaesthesia with ether. Blood samples were collected in microfuge tubes containing heparin as an anticoagulant at 0 min, 10 min, 20 min, 30 min, 45 min, 1 h, 2 h, 4 h, 6 h, 8 h, and 12 h after treatment. Plasma was harvested by centrifuging blood samples at 3500 ×g for 10 min and stored at −80°C until analysis. The concentrations of GAS, HBA, and RIN in plasma were determined as described above. QC samples were distributed among calibrators and samples in the analytical run to adjust the error.
The pharmacokinetic parameters, such as area under the plasma concentration-time curve (AUC), maximum plasma concentration (C max), corresponding time (T max) and half-life (T 1/2), plasma clearance (CL), mean residence time (MRT), and initial plasma concentration (C 0) for orally administered dose, were performed on each individual set using the software of Kinetica (Version 5.0, Thermo Electron Corp., MA, USA) by the noncompartmental model. […]

[2] = Stability of GAS, HBA and RIN spiked into rat plasma (HPLC-MS); type: physicochemical; settings: for Stability (RE, %) 20°C/24 h / Stability (RE, %) Freeze-thaw (3 cycles) / Stability (RE, %) −80°C/20 days: rat plasma, n = 3; for stability spiked into rat plasma: room temperature (22–25°C) for 24 h, −80°C for 20 days, three freeze/thaw cycles
Experimental: The stability experiments on GAS, HBA, and RIN were performed at three concentrations of the QC samples, using three replicates at each concentration (10, 50, and 100 μg/mL for GAS and HBA and 1, 5, and 10 μg/mL for RIN). Short-term stability was determined after exposure of the spiked samples at room temperature for 24 h. The freeze/thaw stability was evaluated after three complete freeze/thaw cycles (−80°C) on consecutive days. Long-term stability was assessed after storage of the standard spiked plasma samples at −80°C for 20 days. Postextraction stability was determined after the extracted samples had been stored in the autosampler pending analysis at the temperature of the autoinjector (4°C) for 24 h. The analytes were considered stable in the biological matrix when 85–115% (RE) of the initial concentration was found.

[3] = in vivo, rat plasma, oral EPT 5.4 g/kg, n = 6
[4] = in vivo, rat plasma, oral Yizhi tablets 9 g/kg, n = 6
[5] = rat, in vivo, po, 9 g/kg, oral Yizhi tablets 9 g/kg, n = 6
[6] = rat, in vivo, po, 9 g/kg, text value matching the Yizhi tablet group (oral 9 g/kg)
[7] = rat plasma, oral EPT 5.4 g/kg, n = 6
[8] = rat plasma, oral Yizhi tablets 9 g/kg, n = 6
[9] = in vivo, rat plasma, oral EPG 3.6 g/kg, n = 6

SMILES | AUC(0-inf) [1, 4] [ng·h/mL] | CL/F [1, 4] [mL/min/kg] | Cmax [1, 4] [ng/mL] | Tmax [1, 4] [h] | MRT last [1, 4] [h] | MRT inf [1, 4] [h] | AUC(0-t) [1, 5] [ng·h/mL] | AUC(0-t) [1, 6] [ng·h/mL] | Stability (RE, %) 20°C/24 h ([2]; 10 μg/mL) [%] | Stability (RE, %) Freeze-thaw (3 cycles) ([2]; 10 μg/mL) [%] | Stability (RE, %) −80°C/20 days ([2]; 10 μg/mL) [%] | Stability (RE, %) 20°C/24 h ([2]; 50 μg/mL) [%] | Stability (RE, %) Freeze-thaw (3 cycles) ([2]; 50 μg/mL) [%] | Stability (RE, %) −80°C/20 days ([2]; 50 μg/mL) [%] | Stability (RE, %) 20°C/24 h ([2]; 100 μg/mL) [%] | Stability (RE, %) Freeze-thaw (3 cycles) ([2]; 100 μg/mL) [%] | Stability (RE, %) −80°C/20 days ([2]; 100 μg/mL) [%] | stability spiked into rat plasma [2] | other results
OCc1ccc(O[C@@H]2O[C@H](CO)[C@@H](O)[C@H](O)[C@H]2O)cc1 [GAS, Gastrodin] | 249000 | 3.5 ± 0.1 | 141000 ± 19000 | 0.75 | 2.69 | 3.29 | 230000 | 230000 | 9.35 | 5.36 | 4.38 | 3.17 | 4.12 | 6.95 | 3.93 | 8.26 | 8.01 | stable | AUC(0-inf) [1, 3]: 367000 ng·h/mL; CL/F [1, 3]: 2.32 ± 0.25 mL/min/kg; Cmax [1, 3]: 188000 ± 19300 ng/mL; Tmax [1, 3]: 0.361 h; MRT last [1, 3]: 2.03 h; MRT inf [1, 3]: 2.21 h; AUC(0-t) ([1]; rat, in vivo, po, 5.4 g/kg, oral EPT 5.4 g/kg, n = 6): 359000 ng·h/mL; MRT change when coadministered with Yizhi tablet ([1]; rat plasma, Yizhi tablet group versus EPT group): 1.32 fold; time of first of two successive maximum plasma concentrations ([1]; rat plasma, oral Yizhi tablets): 45 min; time of second of two successive maximum plasma concentrations ([1]; rat plasma, oral Yizhi tablets): 120 min
OCc1ccc(O)cc1 [HBA, p-hydroxybenzyl alcohol] | – | – | – | – | – | – | – | – | 4.69 | 2.65 | 4.58 | 2.65 | 4.65 | 5.63 | 3.17 | 7.03 | 7.15 | stable | AUC(0-inf) [1, 7]: 34700 ng·h/mL; AUC(0-t) [1, 7]: 27600 ng·h/mL; Cmax [1, 7]: 9120 ± 610 ng/mL; Tmax [1, 7]: 1 h; MRT last [1, 7]: 2.57 h; MRT inf [1, 7]: 3.98 h; AUC(0-inf) [1, 8]: 52200 ng·h/mL; AUC(0-t) [1, 8]: 37800 ng·h/mL; Cmax [1, 8]: 10400 ± 3020 ng/mL; Tmax [1, 8]: 0.917 h; MRT last [1, 8]: 4.44 h; MRT inf [1, 8]: 9.22 h; bioavailability in Yizhi tablet group compared with EPT alone ([1]; rat plasma, increased AUC, longer MRT (P < 0.01), higher C max): higher bioavailability
CC[C@H]1CN2CC[C@]3(C(=O)Nc4ccccc43)[C@@H]2C[C@@H]1/C(=C\OC)C(=O)OC [RIN, rhynchophylline] | 32000 | 2.18 ± 0.46 | 6500 ± 1440 | 4 | 3.72 | 4.59 | 29700 | 29700 | 9.35 | 4.56 | 5.49 | – | – | – | – | – | – | stable | AUC(0-inf) [1, 9]: 43400 ng·h/mL; CL/F [1, 9]: 1.55 ± 0.13 mL/min/kg; Cmax [1, 9]: 6170 ± 380 ng/mL; Tmax [1, 9]: 3.67 h; MRT last [1, 9]: 4.78 h; MRT inf [1, 9]: 5.59 h; AUC(0-t) ([1]; rat, in vivo, po, 3.6 g/kg, oral EPG 3.6 g/kg): 40200 ng·h/mL; AUC(0-t) ([1]; rat, in vivo, po, 3.6 g/kg, oral EPG 3.6 g/kg, n = 6): 40200 ng·h/mL; delay of T max ([1]; rat plasma, Yizhi tablets versus EPG alone): 0.333 h; Stability (RE, %) 20°C/24 h ([2]; 1 μg/mL): 8.63%; Stability (RE, %) Freeze-thaw (3 cycles) ([2]; 1 μg/mL): 7.18%; Stability (RE, %) −80°C/20 days ([2]; 1 μg/mL): 6.88%; Stability (RE, %) 20°C/24 h ([2]; 5 μg/mL): 7.65%; Stability (RE, %) Freeze-thaw (3 cycles) ([2]; 5 μg/mL): 8.08%; Stability (RE, %) −80°C/20 days ([2]; 5 μg/mL): 8.04%
